Activity calls are given as the source filed them. The calls are words filed in the database; no cut-off is given here. *1 amine or outer side, *2 acyl side, *3 side chain or, on linkers, in order; H or OH if unused. Where a SMILES comes first, the peptide text is derived from it. [ ]: non-standard residue; d: D form. ACHC(1S,2S) = O=C([C@H]1CCCC[C@@H]1N[*:1])[*:2]; X2 = C[C@@]1(C(=O)[*:2])CCN1[*:1]; X1 = C[C@]1(C(=O)[*:2])CCN1[*:1]; Aze = O=C(O)[C@@H]1CCN1; βAla = NCCC(=O)O
Assays:
[1] = target: BDNF/NT-3 growth factors receptor (Rattus norvegicus) (UniProt Q63604); assay: Agonist activity at TrkB in E18 Sprague-Dawley rat hippocampal neurons assessed as induction of TrkB autophosphorylation at Tyr490 at 100 uM after 1 hr by Western blotting analysis; assay type: functional, tissue-based; conditions: Hippocampus
Sequence of BDNF/NT-3 growth factors receptor (Rattus norvegicus) (Q63604 whole entry): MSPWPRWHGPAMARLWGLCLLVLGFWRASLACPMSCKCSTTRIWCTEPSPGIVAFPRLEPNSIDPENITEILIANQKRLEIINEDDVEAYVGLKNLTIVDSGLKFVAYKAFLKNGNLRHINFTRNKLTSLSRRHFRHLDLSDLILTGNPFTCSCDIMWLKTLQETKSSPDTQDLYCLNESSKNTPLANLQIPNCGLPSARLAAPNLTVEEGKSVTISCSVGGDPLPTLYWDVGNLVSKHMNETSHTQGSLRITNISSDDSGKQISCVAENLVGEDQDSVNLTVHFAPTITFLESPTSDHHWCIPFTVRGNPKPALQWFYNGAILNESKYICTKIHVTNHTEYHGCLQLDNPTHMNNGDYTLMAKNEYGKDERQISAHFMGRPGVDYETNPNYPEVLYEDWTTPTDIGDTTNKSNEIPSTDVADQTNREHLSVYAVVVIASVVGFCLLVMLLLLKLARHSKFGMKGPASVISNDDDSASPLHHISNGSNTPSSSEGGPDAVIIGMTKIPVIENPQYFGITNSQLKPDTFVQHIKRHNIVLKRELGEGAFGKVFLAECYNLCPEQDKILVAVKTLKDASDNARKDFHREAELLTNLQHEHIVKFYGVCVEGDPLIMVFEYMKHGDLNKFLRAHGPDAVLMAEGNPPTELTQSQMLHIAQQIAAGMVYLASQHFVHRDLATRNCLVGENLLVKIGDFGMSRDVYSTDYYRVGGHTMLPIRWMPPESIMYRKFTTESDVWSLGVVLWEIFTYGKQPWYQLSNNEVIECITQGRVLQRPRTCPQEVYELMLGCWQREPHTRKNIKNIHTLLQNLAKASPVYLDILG

[2] = target: BDNF/NT-3 growth factors receptor (Rattus norvegicus) (UniProt Q63604); assay: Antagonist activity at TrkB in E18 Sprague-Dawley rat hippocampal neurons assessed as inhibition of BDNF-induced TrkB phosphorylation at Tyr490 at 100 uM preincubated for 1 hr followed by BDNF induction for 10 mins by Western blotting analysis; assay type: functional, tissue-based; conditions: Hippocampus

Row | Structure (SMILES) | Activity [1] | inhibition [2]
1 | CC(C)[C@@H]1NC(=O)[C@H]2CCCC[C@@H]2NC(=O)CCNC(=O)[C@H](CCCCN)NC(=O)[C@H](CO)NC1=O | inactive | inactive
2 | N=C(N)NCCC[C@@H]1NC(=O)[C@H](CCCCN)NC(=O)[C@H](CCCCN)NC(=O)[C@H](CO)NC(=O)[C@H](CC(=O)O)NC(=O)[C@H]2CCCC[C@@H]2NC1=O (cyclo(DSKKR[ACHC(1S,2S)])) | inactive | Active
3 | N=C(N)NCCC[C@@H]1NC(=O)[C@H]2CCCC[C@@H]2NC(=O)[C@H](CC(=O)O)NC(=O)[C@H](CO)NC(=O)[C@H](CCCCN)NC(=O)[C@H](CCCCN)NC(=O)[C@H](CCCNC(=N)N)NC(=O)[C@H]2CCCC[C@@H]2NC(=O)[C@H](CC(=O)O)NC(=O)[C@H](CO)NC(=O)[C@H](CCCCN)NC(=O)[C@H](CCCCN)NC1=O (cyclo(D[ACHC(1S,2S)]RKKSD[ACHC(1S,2S)]RKKS)) | inactive | Active
4 | CC(C)[C@@H]1NC(=O)[C@H]2CCCC[C@@H]2NC(=O)CNC(=O)[C@H](CCCCN)NC(=O)[C@H](CO)NC(=O)[C@H](C(C)C)NC(=O)[C@H]2CCCC[C@@H]2NC(=O)CNC(=O)[C@H](CCCCN)NC(=O)[C@H](CO)NC1=O (cyclo(G[ACHC(1S,2S)]VSKG[ACHC(1S,2S)]VSK)) | inactive | 
5 | CC(C)[C@@H]1NC(=O)[C@]2(C)CCN2C(=O)CNC(=O)[C@H](CCCCN)NC(=O)[C@H](CO)NC(=O)[C@H](C(C)C)NC(=O)[C@@]2(C)CCN2C(=O)CNC(=O)[C@H](CCCCN)NC(=O)[C@H](CO)NC1=O (cyclo(G[X1]VSKG[X2]VSK)) | inactive | Active
6 | CC(C)[C@@H]1NC(=O)[C@H]2CCCC[C@@H]2NC(=O)CCNC(=O)[C@H](CCCCN)NC(=O)[C@H](CO)NC(=O)[C@H](C(C)C)NC(=O)[C@H]2CCCC[C@@H]2NC(=O)CCNC(=O)[C@H](CCCCN)NC(=O)[C@H](CO)NC1=O (cyclo(K[βAla][ACHC(1S,2S)]VSK[βAla][ACHC(1S,2S)]VS)) | inactive | 
7 | CC(C)[C@@H]1NC(=O)[C@@H]2CCN2C(=O)CNC(=O)[C@H](CCCCN)NC(=O)[C@H](CO)NC(=O)[C@H](C(C)C)NC(=O)[C@@H]2CCN2C(=O)CNC(=O)[C@H](CCCCN)NC(=O)[C@H](CO)NC1=O (cyclo([Aze]VSKG[Aze]VSKG)) | inactive | 

Other lines, results leading:

Row | Activity [1] | inhibition [2] | Structure (SMILES)
8 | inactive | inactive | CC(C)[C@@H]1NC(=O)[C@@]2(C)CCN2C(=O)CCNC(=O)[C@H](CCCCN)NC(=O)[C@H](CO)NC1=O
9 | inactive | inactive | CC(C)[C@@H]1NC(=O)[C@]2(C)CCN2C(=O)CCNC(=O)[C@H](CCCCN)NC(=O)[C@H](CO)NC1=O
10 | inactive | inactive | CC(C)[C@@H]1NC(=O)[C@H]2CCCC[C@@H]2NC(=O)CNC(=O)[C@H](CCCCN)NC(=O)[C@H](CO)NC1=O (cyclo(G[ACHC(1S,2S)]VSK))
11 | inactive | inactive | CC(C)[C@@H]1NC(=O)[C@@H]2CCN2C(=O)CNC(=O)[C@H](CCCCN)NC(=O)[C@H](CO)NC1=O (cyclo([Aze]VSKG))
12 | inactive | inactive | CC(C)[C@@H]1NC(=O)[C@@H]2CCN2C(=O)CCNC(=O)[C@H](CCCCN)NC(=O)[C@H](CO)NC1=O (cyclo([Aze]VSK[βAla]))
13 | inactive | inactive | CC(C)[C@@H]1NC(=O)C2(C)CCN2C(=O)CNC(=O)[C@H](CCCCN)NC(=O)[C@H](CO)NC1=O (mixture of isomers)

— ChEMBL document CHEMBL1932968, “Cyclic amino acid linkers stabilizing key loops of brain derived neurotrophic factor” (Bioorg Med Chem Lett, 2012)
